# Measured values as given in patent US4496584A, “Amidine derivatives with anti-complement activity” (Torii & Co. Ltd., priority 1981, dated 1985).
# Several values for one entry are separate records, joined by “and”; a condition that tells them apart may be missing. Equal values may be shown once. Read-outs that look alike come from different tables or passages of the source.
# How the values were obtained:
# [1] = test system: complement mediated hemolysis; test: Inhibition of complement mediated hemolysis (method of Baker et al.); type: cell-based
# trypsin = target: T1, trypsin (Bos taurus, UniProt P00760); test: Enzyme inhibition, TAME hydrolysis, trypsin (method of Muramatsu et al.); type: biochemical; settings: read-out: percentage inhibition, trypsin (figure in parentheses)
# T1 sequence (P00760 24-246): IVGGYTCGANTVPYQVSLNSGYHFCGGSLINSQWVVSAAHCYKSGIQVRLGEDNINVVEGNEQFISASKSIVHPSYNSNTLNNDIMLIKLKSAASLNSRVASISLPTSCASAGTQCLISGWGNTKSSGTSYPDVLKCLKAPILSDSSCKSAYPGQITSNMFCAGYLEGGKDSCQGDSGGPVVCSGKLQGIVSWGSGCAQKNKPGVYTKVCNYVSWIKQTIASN
# Procedure: (§1) The enzyme inhibitory activity was determined according to the method of Muramatsu et al. [M. Muramatsu, T. Onishi, S. Makino, Y. Hayashi and S. Fujii, J. Biochem., 58, 214 (1965)]. The data summarized in Table 1 are expressed in terms of molar concentration (ID50) of the test compound which inhibits 50% of the activity of each enzyme to hydrolyze TAME (tosylarginine methyl ester).
# kallikrein = test: Enzyme inhibition, TAME hydrolysis, kallikrein (method of Muramatsu et al.); type: biochemical; settings: 1×10^-5 M
# Procedure: as §1
# thrombin = thrombin (Bos taurus, UniProt P00735); test: Enzyme inhibition, TAME hydrolysis, thrombin (method of Muramatsu et al.); type: biochemical
# Procedure: as §1
# plasmin = plasmin (Homo sapiens, UniProt P00747); test: Enzyme inhibition, TAME hydrolysis, plasmin (method of Muramatsu et al.); type: biochemical; settings: read-out: ID50, plasmin
# Sequence of plasmin (P00747 581-810 limits assumed): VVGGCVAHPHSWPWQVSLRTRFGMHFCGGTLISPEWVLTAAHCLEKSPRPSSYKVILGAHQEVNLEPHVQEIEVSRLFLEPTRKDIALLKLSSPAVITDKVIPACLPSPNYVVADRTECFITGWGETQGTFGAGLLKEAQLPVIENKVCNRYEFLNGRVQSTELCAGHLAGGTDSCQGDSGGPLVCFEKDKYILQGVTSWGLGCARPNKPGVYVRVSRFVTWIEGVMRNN
# Sequence of plasmin (P00747 97-580 partner limits assumed): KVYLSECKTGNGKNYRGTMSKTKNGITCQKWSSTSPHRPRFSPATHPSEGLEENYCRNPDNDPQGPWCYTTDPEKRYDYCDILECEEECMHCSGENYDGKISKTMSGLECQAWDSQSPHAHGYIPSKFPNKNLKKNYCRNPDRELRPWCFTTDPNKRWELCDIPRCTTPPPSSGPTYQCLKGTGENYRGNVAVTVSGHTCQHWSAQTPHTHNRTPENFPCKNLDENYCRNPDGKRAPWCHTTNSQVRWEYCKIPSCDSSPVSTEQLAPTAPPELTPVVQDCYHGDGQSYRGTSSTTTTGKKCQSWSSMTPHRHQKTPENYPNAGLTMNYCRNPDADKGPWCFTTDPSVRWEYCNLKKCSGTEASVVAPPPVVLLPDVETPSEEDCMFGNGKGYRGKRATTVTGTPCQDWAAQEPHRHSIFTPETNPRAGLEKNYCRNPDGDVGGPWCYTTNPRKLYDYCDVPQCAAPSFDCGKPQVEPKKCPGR
# Procedure: as §1
# Cls = target: T2, Cls (Homo sapiens, UniProt P09871); test: Anti-Cl esterase activity, Cls (ATEE hydrolysis, method of Okamura et al.); type: biochemical; settings: read-out: Anti-C1 activity, Cls (ID50)
# T2 sequence (P09871 438-688 limits assumed): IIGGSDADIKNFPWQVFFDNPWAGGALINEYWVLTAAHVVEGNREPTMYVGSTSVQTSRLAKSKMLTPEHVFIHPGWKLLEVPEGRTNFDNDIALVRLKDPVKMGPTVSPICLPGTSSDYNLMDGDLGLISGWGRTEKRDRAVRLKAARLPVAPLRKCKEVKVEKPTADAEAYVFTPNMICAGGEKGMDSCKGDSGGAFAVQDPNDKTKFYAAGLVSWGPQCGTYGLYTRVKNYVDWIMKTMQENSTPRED
# T2 sequence (P09871 16-437 partner limits assumed): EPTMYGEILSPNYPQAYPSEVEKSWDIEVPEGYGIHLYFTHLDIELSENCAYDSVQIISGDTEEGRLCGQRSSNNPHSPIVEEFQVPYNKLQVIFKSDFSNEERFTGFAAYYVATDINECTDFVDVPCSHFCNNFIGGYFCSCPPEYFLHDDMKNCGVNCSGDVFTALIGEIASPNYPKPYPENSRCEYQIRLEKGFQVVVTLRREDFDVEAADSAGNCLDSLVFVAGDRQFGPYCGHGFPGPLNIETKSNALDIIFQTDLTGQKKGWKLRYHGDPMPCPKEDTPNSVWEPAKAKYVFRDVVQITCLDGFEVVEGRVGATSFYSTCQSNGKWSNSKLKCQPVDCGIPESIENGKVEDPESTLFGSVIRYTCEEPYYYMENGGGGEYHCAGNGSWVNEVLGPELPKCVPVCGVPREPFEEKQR
# Procedure: (§2) The anti-Cl esterase (Clr, Cls) activity was determined according to the method of Okamura et al. [K. Okamura, M. Muramatsu and S. Fujii, Biochem. Biophys. Acta, 295, 252-257 (1973)]. The inhibition of complement mediated hemolysis (percent) was determined according to the method of Baker et al. [B. R. Baker and E. H. Erickson, J. Med. Chem., 12, 408-414 (1969)]. The figures in Table 2 have the following meanings:
# Cls: Molar concentration of the test compound which inhibits 50% of the ability of Cls to hydrolyse ATEE (acetyltyrosin ethyl ester) (ID50).
# [2] = Toxicity, lethal dose (LD50); settings: mouse, in vivo
# Clr = target: T3, Clr (Homo sapiens, UniProt P00736); test: Anti-Cl esterase activity, Clr (AAME hydrolysis, method of Okamura et al.); type: biochemical; settings: read-out: Anti-C1 activity, Clr (ID50)
# T3 sequence (P00736 464-705 limits assumed): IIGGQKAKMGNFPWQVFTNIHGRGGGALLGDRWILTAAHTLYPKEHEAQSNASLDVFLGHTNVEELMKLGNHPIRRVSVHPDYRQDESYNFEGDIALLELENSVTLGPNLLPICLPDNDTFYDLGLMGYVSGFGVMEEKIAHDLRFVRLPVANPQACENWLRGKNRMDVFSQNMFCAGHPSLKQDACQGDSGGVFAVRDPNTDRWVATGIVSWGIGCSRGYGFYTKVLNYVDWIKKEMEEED
# T3 sequence (P00736 18-463 partner limits assumed): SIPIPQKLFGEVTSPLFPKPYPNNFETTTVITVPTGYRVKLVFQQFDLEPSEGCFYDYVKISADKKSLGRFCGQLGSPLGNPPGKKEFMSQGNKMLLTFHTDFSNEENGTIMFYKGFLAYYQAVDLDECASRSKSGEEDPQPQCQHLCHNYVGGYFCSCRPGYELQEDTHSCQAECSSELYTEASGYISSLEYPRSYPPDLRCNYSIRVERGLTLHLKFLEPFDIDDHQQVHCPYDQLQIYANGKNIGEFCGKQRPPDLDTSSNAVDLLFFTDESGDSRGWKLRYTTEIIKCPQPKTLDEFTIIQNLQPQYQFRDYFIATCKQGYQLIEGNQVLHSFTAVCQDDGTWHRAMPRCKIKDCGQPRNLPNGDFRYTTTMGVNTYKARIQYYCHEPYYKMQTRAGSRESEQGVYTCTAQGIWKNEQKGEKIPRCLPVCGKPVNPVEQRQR
# Procedure: as §2
# Clr: Molar concentration of the test compound which inhibits 50% of the ability of Clr to hydrolyse AAME (acetylarginin methyl ester) (ID50).
# Forssman shock = test: Forssman shock, time elapsed until death; type: in vivo, guinea pig; settings: 5 minutes before hemolysin
# Procedure: The experiment was performed according to the method of I. G. Offerness et al. [Biochem. Pharmacol., 27 (14), 1873-1878 (1978)]. Male Hartlay guinea pig of about 300 g in body weight was used. Each guinea pig of the control group was administered intravenously with 0.5 ml (minimum dose to cause the shock) of hemolysin (commercial hemolysin, 5,000 U as assayed by the method of Ogata) and the time elapsed until death was observed. For the test group, each guinea pig was administered intravenously with the test compound 5 minutes before the administration of hemolysin and the time (second) elapsed until death was observed.
smiles,measurement,setting,value
"N=C(N)c1ccc2cc(OC(=O)[C@H]3CC[C@H](CN)CC3)ccc2c1 [Compound No. 20, 6-amidino-2-naphthyl trans-4-aminomethylcyclohexanecarboxylate]",Inhibition of complement mediated hemolysis (%),[1]; concentration 1 × 10^-4,100%
same,Inhibition of complement mediated hemolysis (%),[1]; concentration 1 × 10^-5,99%
same,Inhibition of complement mediated hemolysis (%),[1]; concentration 1 × 10^-6,80%
same,Inhibition of complement mediated hemolysis (%),[1]; concentration 1 × 10^-7,12%
same,inhibition at 10 µM,trypsin,28%
same,"percentage inhibition, kallikrein (figure in parentheses)",kallikrein,38%
same,IC50,thrombin,> 10 µM
same,IC50,plasmin,> 10 µM
same,IC50,Cls,4 µM
same,LD50,"[2]; ip, read-out: LD50 Mouse IP",175 mg/kg
same,LD50,"[2]; po, read-out: LD50 Mouse PO",2000 mg/kg
same,IC50,Clr,5 µM
same,"time elapsed until death, Average","Forssman shock; 1.0 mg/kg intravenously, average of 6, control average 428",442 s
same,time elapsed until death,"Forssman shock; 1.0 mg/kg intravenously, individual animals 1-6",360 s and 365 s and 325 s and 620 s and 650 s
same,time elapsed until death / survival,"Forssman shock; 3.0 mg/kg intravenously, individual animals 1-6, ditto mark = Survival",Survival
